# Source: the supplement of paper PMC11208160
# Experiment: recombinant barcode read abundance after kanamycin selection (control-corrected) (log10(CPM+1)); higher = more efficient recombination; sequences stand for … in AGTGCAGAGAAAATCGGCCAGTTTTCTCTGCCTGCAGTCCGCATGCCGT…ATTTATGCAGCGGACTGCCTTTCTCCCAAAGTGATAAACCGGACAGTATCATGGACCGGTTTTCCCGGTAATCCGTATTTGCAAGGTTGGTTTCACT; site = the 11-nt target
# How it was run: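 A vector carrying a T7-inducible recombinase and the last 73 bp of the bridge RNA received, by Gibson cloning, oligos encoding a promoter, target, barcode and the first 104 bridge RNA bases under J23119. The pooled constructs entered E. coli together with a donor plasmid by electroporation. Selection used chloramphenicol/ampicillin/kanamycin with 0.1 mM IPTG, with chloramphenicol/ampicillin LB agar as the control, each in two replicates. Recombination efficiency is the averaged, control-corrected counts-per-million of barcodes at recombinant junctions, reported as log10(CPM+1).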
row,Sequence,recombinant barcode read abundance (log10)
1,"TGATACCCTTGGGTTCTAACCTGTTGCGTTA [TGATACCCTAC_LTGcore_CT_RTGcore_TA] (site TGATACCCTAC) (LTG core: CT, RTG core: TA)",0.0153
2,"TGATACCGATGGGTTCTAACCTGTTGCGTTC [TGATACCCTAC_LTGcore_GA_RTGcore_GA] (site TGATACCCTAC) (LTG core: GA, RTG core: GA)",0.269
3,"TGATACCGGTGGGTTCTAACCTGTTGCGTAG [TGATACCCTAC_LTGcore_GG_RTGcore_CT] (site TGATACCCTAC) (LTG core: GG, RTG core: CT)",0.108
4,"TGATACCTGTGGGTTCTAACCTGTTGCGTCA [TGATACCCTAC_LTGcore_TG_RTGcore_TG] (site TGATACCCTAC) (LTG core: TG, RTG core: TG)",0.256
5,"TGTATTCAGTGGGTTCTAACCTGTTGCCTCT [TGTATTCCTAG_LTGcore_AG_RTGcore_AG] (site TGTATTCCTAG) (LTG core: AG, RTG core: AG)",0.00767
6,"TGTATTCATTGGGTTCTAACCTGTTGCCTAG [TGTATTCCTAG_LTGcore_AT_RTGcore_CT] (site TGTATTCCTAG) (LTG core: AT, RTG core: CT)",0.0853
7,"TGTATTCCATGGGTTCTAACCTGTTGCCTAG [TGTATTCCTAG_LTGcore_CA_RTGcore_CT] (site TGTATTCCTAG) (LTG core: CA, RTG core: CT)",0.0466
8,"TGTATTCCTTGGGTTCTAACCTGTTGCCTAG [TGTATTCCTAG_LTGcore_CT_RTGcore_CT] (site TGTATTCCTAG) (LTG core: CT, RTG core: CT)",0.129
9,"TGTATTCCTTGGGTTCTAACCTGTTGCCTTA [TGTATTCCTAG_LTGcore_CT_RTGcore_TA] (site TGTATTCCTAG) (LTG core: CT, RTG core: TA)",0.0748
10,"TGTATTCGATGGGTTCTAACCTGTTGCCTAG [TGTATTCCTAG_LTGcore_GA_RTGcore_CT] (site TGTATTCCTAG) (LTG core: GA, RTG core: CT)",0.0114
11,"TGTATTCGTTGGGTTCTAACCTGTTGCCTAG [TGTATTCCTAG_LTGcore_GT_RTGcore_CT] (site TGTATTCCTAG) (LTG core: GT, RTG core: CT)",0.0893
12,"TTATAAAACTGGGTTCTAACCTGTTGCCTGT [TTATAAACTAG_LTGcore_AC_RTGcore_AC] (site TTATAAACTAG) (LTG core: AC, RTG core: AC)",0.0452
13,"TTATAAAAGTGGGTTCTAACCTGTTGCCTCT [TTATAAACTAG_LTGcore_AG_RTGcore_AG] (site TTATAAACTAG) (LTG core: AG, RTG core: AG)",0.0267
14,"TTATAAACGTGGGTTCTAACCTGTTGCCTCG [TTATAAACTAG_LTGcore_CG_RTGcore_CG] (site TTATAAACTAG) (LTG core: CG, RTG core: CG)",0.193
15,"TTATAAACTTGGGTTCTAACCTGTTGCCTCA [TTATAAACTAG_LTGcore_CT_RTGcore_TG] (site TTATAAACTAG) (LTG core: CT, RTG core: TG)",0.402
16,"TTATAAACTTGGGTTCTAACCTGTTGCCTCT [TTATAAACTAG_LTGcore_CT_RTGcore_AG] (site TTATAAACTAG) (LTG core: CT, RTG core: AG)",0.0489
17,"TTATAAACTTGGGTTCTAACCTGTTGCCTGT [TTATAAACTAG_LTGcore_CT_RTGcore_AC] (site TTATAAACTAG) (LTG core: CT, RTG core: AC)",0.0449
18,"TTATAAACTTGGGTTCTAACCTGTTGCCTTA [TTATAAACTAG_LTGcore_CT_RTGcore_TA] (site TTATAAACTAG) (LTG core: CT, RTG core: TA)",0.076
19,"TTATAAAGCTGGGTTCTAACCTGTTGCCTGC [TTATAAACTAG_LTGcore_GC_RTGcore_GC] (site TTATAAACTAG) (LTG core: GC, RTG core: GC)",0
20,"TTATAAATCTGGGTTCTAACCTGTTGCCTAG [TTATAAACTAG_LTGcore_TC_RTGcore_CT] (site TTATAAACTAG) (LTG core: TC, RTG core: CT)",0.235
21,"TTATAAATTTGGGTTCTAACCTGTTGCCTAA [TTATAAACTAG_LTGcore_TT_RTGcore_TT] (site TTATAAACTAG) (LTG core: TT, RTG core: TT)",0.0515
